Tests used:
hyaluronidase enzyme = test: hyaluronic acid degradation, DMAB colorimetric, absorbance […] nm; type: biochemical; conditions: hyaluronic acid 1 mg/mL in 0.1 M acetate pH 3.5, CaCl2; positive control
[1] = target: T1, Collagenase enzyme, from Clostridium histolyticum (ChC); test: FALGPA hydrolysis, absorbance […] nm; type: biochemical, Hathewaya histolytica; conditions: Tricine buffer 50 mM, 400 mM NaCl, 10 mM CaCl2, pH 7.5, 15 min preincubation; positive control
T1 construct: gene colG; native enzyme preparation, ColG / ColH not distinguished

| SMILES | Parameters IC50 (μg/mL) / Hyaluronidase (hyaluronidase enzyme) | Parameters IC50 (μg/mL) / Collagenase [1] |
| --- | --- | --- |
| O=c1cc(CO)occ1O [Kojic acid] | 14.46 ± 0.6 µg/mL |  |
| O=c1c(O)c(-c2ccc(O)c(O)c2)oc2cc(O)cc(O)c12 [Quercetin] |  | 24.83 ± 1.8 µg/mL |
